Patent publication US9393271B2, “GHRH agonists for islet cell transplantation and function and the treatment of diabetes” (UNIVERSITY OF MIAMI, priority 2012, dated 2016)
Non-standard residues stand in square brackets, D forms with d. Residues, ends and D or L forms follow the SMILES beside them. ξ: configuration not given here. *: point of attachment. Desaminotyrosyl = O=C(CCc1ccc(O)cc1)*; NMeY = CN[C@@H](Cc1ccc(O)cc1)C(=O)O; Agmatine = N=C(N)NCCCCN*; Nle = CCCC[C@H](N)C(=O)O; Orn = NCCC[C@H](N)C(=O)O; Abu = CC[C@H](N)C(=O)O; Aoc = NCCCCCCCC(=O)O; Ava = NCCCCC(=O)O; ξA = CC(N)C(=O)O

Target: T1, GHRH receptor (human pituitary membrane homogenates) (Homo sapiens, UniProt Q02643)
T1 sequence (Q02643 23-423): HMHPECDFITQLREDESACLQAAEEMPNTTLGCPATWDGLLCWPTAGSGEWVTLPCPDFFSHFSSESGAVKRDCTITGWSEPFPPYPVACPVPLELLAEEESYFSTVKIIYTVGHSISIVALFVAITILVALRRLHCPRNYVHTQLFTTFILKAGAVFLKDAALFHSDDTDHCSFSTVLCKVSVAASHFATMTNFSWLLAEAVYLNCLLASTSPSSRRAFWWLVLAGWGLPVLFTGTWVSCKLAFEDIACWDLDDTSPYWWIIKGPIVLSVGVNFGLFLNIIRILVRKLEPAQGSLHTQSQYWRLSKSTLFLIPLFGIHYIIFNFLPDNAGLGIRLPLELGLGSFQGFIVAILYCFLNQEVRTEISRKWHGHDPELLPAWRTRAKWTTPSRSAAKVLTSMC
Experiment: GHRH receptor binding, ligand competition with 125I-labeled JV-1-42 (Table 7)
Parameters: Normal human pituitaries were purchased from the National Hormone and Peptide Program; tissue National Hormone and Peptide Program (A. F. Parlow, Harbor-UCLA Medical Center, Torrance, Calif.); host or cells: normal human pituitary, membrane fraction / homogenate
Settings: JI-38 = 1

Relative affinitiy (Binding potency) vs JI-38	SMILES
1.45	CCCC[C@H](NC(=O)[C@@H](NC(=O)[C@H](CC(=O)O)NC(=O)[C@H](CCC(N)=O)NC(=O)[C@H](CC(C)C)NC(=O)[C@H](CC(C)C)NC(=O)[C@H](CCCN)NC(=O)[C@H](CCCNC(=N)N)NC(=O)[C@H](C)NC(=O)[C@H](CO)NC(=O)[C@H](CC(C)C)NC(=O)[C@H](CCC(N)=O)NC(=O)[C@H](CC)NC(=O)[C@H](CC(C)C)NC(=O)[C@@H](NC(=O)[C@H](CCCN)NC(=O)[C@H](CCCNC(=N)N)NC(=O)[C@H](Cc1ccc(O)cc1)NC(=O)[C@H](CO)NC(=O)[C@H](CCC(N)=O)NC(=O)[C@@H](NC(=O)[C@H](Cc1ccccc1)NC(=O)[C@@H](NC(=O)[C@H](C)NC(=O)[C@H](CC(=O)O)NC(=O)[C@H](C)NC(=O)CCc1ccc(O)cc1)[C@@H](C)CC)[C@@H](C)O)C(C)C)[C@@H](C)CC)C(=O)N[C@@H](CC(=O)O)C(=O)N[C@@H](CCCNC(=N)N)C(=O)NC [Peptide P-27407, [Dat^1, Gln^8, Orn^12, Abu^15, Orn^21, Nle^27, Asp^28]hGHRH(1-29)NH—CH3] (Desaminotyrosyl-ADAIFTQSYR[Orn]VL[Abu]QLSAR[Orn]LLQDI[Nle]DR-NHMe)
1.45	CCCC[C@H](NC(=O)[C@@H](NC(=O)[C@H](CC(=O)O)NC(=O)[C@H](CCC(N)=O)NC(=O)[C@H](CC(C)C)NC(=O)[C@H](CC(C)C)NC(=O)[C@H](CCCN)NC(=O)[C@H](CCCNC(=N)N)NC(=O)[C@H](C)NC(=O)[C@H](CO)NC(=O)[C@H](CC(C)C)NC(=O)[C@H](CCC(N)=O)NC(=O)[C@H](CC)NC(=O)[C@H](CC(C)C)NC(=O)[C@@H](NC(=O)[C@H](CCCN)NC(=O)[C@H](CCCNC(=N)N)NC(=O)[C@H](Cc1ccc(O)cc1)NC(=O)[C@H](CO)NC(=O)[C@H](CC(N)=O)NC(=O)[C@@H](NC(=O)[C@H](Cc1ccccc1)NC(=O)[C@@H](NC(=O)[C@H](C)NC(=O)[C@H](CC(=O)O)NC(=O)[C@H](C)NC(=O)[C@H](Cc1ccc(O)cc1)NC)[C@@H](C)CC)[C@@H](C)O)C(C)C)[C@@H](C)CC)C(=O)N[C@@H](CC(=O)O)C(=O)N[C@@H](CCCNC(=N)N)C(=O)NCCCCCCCC(N)=O [Peptide P-21301, [N—Me-Tyr^1, Orn^12, Abu^15, Orn^21, Nle^27, Asp^28, Amc^30]hGHRH(1-30)NH2] (H-[NMeY]ADAIFTNSYR[Orn]VL[Abu]QLSAR[Orn]LLQDI[Nle]DR[Aoc]-NH2)
5.24	CCCC[C@H](NC(=O)[C@@H](NC(=O)[C@H](CC(=O)O)NC(=O)[C@H](CCC(N)=O)NC(=O)[C@H](CC(C)C)NC(=O)[C@H](CC(C)C)NC(=O)[C@H](CCCN)NC(=O)[C@H](CCCNC(=N)N)NC(=O)[C@H](C)NC(=O)[C@H](CO)NC(=O)[C@H](CC(C)C)NC(=O)[C@H](CCC(N)=O)NC(=O)[C@H](CC)NC(=O)[C@H](CC(C)C)NC(=O)[C@@H](NC(=O)[C@H](CCCN)NC(=O)[C@H](CCCNC(=N)N)NC(=O)[C@H](Cc1ccc(O)cc1)NC(=O)[C@H](CO)NC(=O)[C@@H](NC(=O)[C@@H](NC(=O)[C@H](Cc1ccccc1)NC(=O)[C@@H](NC(=O)[C@H](C)NC(=O)[C@H](CC(=O)O)NC(=O)[C@@H](C)NC(=O)[C@H](Cc1ccc(O)cc1)NC)[C@@H](C)CC)[C@@H](C)O)[C@@H](C)O)C(C)C)[C@@H](C)CC)C(=O)N[C@@H](CC(=O)O)C(=O)N[C@@H](CCCNC(=N)N)C(=O)NC [Peptide P-27410, [N—Me-Tyr^1, D-Ala^2, Thr^8, Orn^12, Abu^15, Orn^21, Nle^27, Asp^28]hGHRH(1-29)NH—CH3] (H-[NMeY][dA]DAIFTTSYR[Orn]VL[Abu]QLSAR[Orn]LLQDI[Nle]DR-NHMe)
1.30	CCCC[C@H](NC(=O)[C@@H](NC(=O)[C@H](CC(=O)O)NC(=O)[C@H](CCC(N)=O)NC(=O)[C@H](CC(C)C)NC(=O)[C@H](CC(C)C)NC(=O)[C@H](CCCN)NC(=O)[C@H](CCCNC(=N)N)NC(=O)[C@H](C)NC(=O)[C@H](CO)NC(=O)[C@H](CC(C)C)NC(=O)[C@H](CCC(N)=O)NC(=O)[C@H](CC)NC(=O)[C@H](CC(C)C)NC(=O)[C@@H](NC(=O)[C@H](CCCN)NC(=O)[C@H](CCCNC(=N)N)NC(=O)[C@H](Cc1ccc(O)cc1)NC(=O)[C@H](CO)NC(=O)[C@H](CC(N)=O)NC(=O)[C@@H](NC(=O)[C@H](Cc1ccccc1)NC(=O)[C@@H](NC(=O)[C@H](C)NC(=O)[C@H](CC(=O)O)NC(=O)[C@@H](C)NC(=O)CCc1ccc(O)cc1)[C@@H](C)CC)[C@@H](C)O)C(C)C)[C@@H](C)CC)C(=O)N[C@@H](CC(=O)O)C(=O)N[C@@H](CCCNC(=N)N)C(=O)NC [Peptide P-27400, [Dat^1, D-Ala^2, Orn^12, Abu^15, Orn^21, Nle^27, Asp^28]hGHRH(1-29)NH—CH3] (Desaminotyrosyl-[dA]DAIFTNSYR[Orn]VL[Abu]QLSAR[Orn]LLQDI[Nle]DR-NHMe)
2.32	CCCC[C@H](NC(=O)[C@@H](NC(=O)[C@H](CC(=O)O)NC(=O)[C@H](CCC(N)=O)NC(=O)[C@H](CC(C)C)NC(=O)[C@H](CC(C)C)NC(=O)[C@H](CCCN)NC(=O)[C@H](CCCNC(=N)N)NC(=O)[C@H](C)NC(=O)[C@H](CO)NC(=O)[C@H](CC(C)C)NC(=O)[C@H](CCC(N)=O)NC(=O)[C@H](CC)NC(=O)[C@H](CC(C)C)NC(=O)[C@@H](NC(=O)[C@H](CCCN)NC(=O)[C@H](CCCNC(=N)N)NC(=O)[C@H](Cc1ccc(O)cc1)NC(=O)[C@H](CO)NC(=O)[C@H](CC(N)=O)NC(=O)[C@@H](NC(=O)[C@H](Cc1ccccc1)NC(=O)[C@@H](NC(=O)[C@H](C)NC(=O)[C@H](CC(=O)O)NC(=O)[C@@H](C)NC(=O)[C@H](Cc1ccc(O)cc1)NC)[C@@H](C)CC)[C@@H](C)O)C(C)C)[C@@H](C)CC)C(=O)N[C@@H](CC(=O)O)C(=O)N[C@@H](CCCNC(=N)N)C(=O)NCCCCCCCC(N)=O [Peptide P-21303, [N—Me-Tyr^1, D-Ala^2, Orn^12, Abu^15, Orn^21, Nle^27, Asp^28, Amc^30]hGHRH(1-30)NH2] (H-[NMeY][dA]DAIFTNSYR[Orn]VL[Abu]QLSAR[Orn]LLQDI[Nle]DR[Aoc]-NH2)
2.18	CCCC[C@H](NC(=O)[C@@H](NC(=O)[C@H](CC(=O)O)NC(=O)[C@H](CCC(N)=O)NC(=O)[C@H](CC(C)C)NC(=O)[C@H](CC(C)C)NC(=O)[C@H](CCCN)NC(=O)[C@H](CCCNC(=N)N)NC(=O)[C@H](C)NC(=O)[C@H](CO)NC(=O)[C@H](CC(C)C)NC(=O)[C@H](CCC(N)=O)NC(=O)[C@H](CC)NC(=O)[C@H](CC(C)C)NC(=O)[C@@H](NC(=O)[C@H](CCCN)NC(=O)[C@H](CCCNC(=N)N)NC(=O)[C@H](Cc1ccc(O)cc1)NC(=O)[C@H](CO)NC(=O)[C@H](CCC(N)=O)NC(=O)[C@@H](NC(=O)[C@H](Cc1ccccc1)NC(=O)[C@@H](NC(=O)[C@H](C)NC(=O)[C@H](CC(=O)O)NC(=O)[C@H](C)NC(=O)CCc1ccc(O)cc1)[C@@H](C)CC)[C@@H](C)O)C(C)C)[C@@H](C)CC)C(=O)N[C@@H](CC(=O)O)C(=O)N[C@@H](CCCNC(=N)N)C(=O)NCCCCC(N)=O [Peptide P-22327, [Dat^1, Gln^8, Orn^12, Abu^15, Orn^21, Nle^27, Asp^28, Apa^30]hGHRH(1-30)NH2] (Desaminotyrosyl-ADAIFTQSYR[Orn]VL[Abu]QLSAR[Orn]LLQDI[Nle]DR[Ava]-NH2)
1.78	CCCC[C@H](NC(=O)[C@@H](NC(=O)[C@H](CC(=O)O)NC(=O)[C@H](CCC(N)=O)NC(=O)[C@H](CC(C)C)NC(=O)[C@H](CC(C)C)NC(=O)[C@H](CCCN)NC(=O)[C@H](Cc1c[nH]cn1)NC(=O)[C@H](C)NC(=O)[C@H](CO)NC(=O)[C@H](CC(C)C)NC(=O)[C@H](CCC(N)=O)NC(=O)[C@H](CC)NC(=O)[C@H](CC(C)C)NC(=O)[C@@H](NC(=O)[C@H](CCCN)NC(=O)[C@H](Cc1c[nH]cn1)NC(=O)[C@H](Cc1ccc(O)cc1)NC(=O)[C@H](CO)NC(=O)[C@H](CCC(N)=O)NC(=O)[C@@H](NC(=O)[C@H](Cc1ccccc1)NC(=O)[C@@H](NC(=O)[C@H](C)NC(=O)[C@H](CC(=O)O)NC(=O)C(C)NC(=O)CCc1ccc(O)cc1)[C@@H](C)CC)[C@@H](C)O)C(C)C)[C@@H](C)CC)C(=O)N[C@@H](CC(=O)O)C(=O)N[C@@H](CCCNC(=N)N)C(=O)NC (some centres unmarked) [Peptide P-27413, [Dat^1, Gln^8, His^11, Orn^12, Abu^15, His^20, Orn^21, Nle^27, Asp^28]hGHRH(1-29)NH—CH3] (Desaminotyrosyl-[ξA]DAIFTQSYH[Orn]VL[Abu]QLSAH[Orn]LLQDI[Nle]DR-NHMe)

SMILES	Relative affinitiy (Binding potency) vs JI-38
CCCC[C@H](NC(=O)[C@@H](NC(=O)[C@H](CC(=O)O)NC(=O)[C@H](CCC(N)=O)NC(=O)[C@H](CC(C)C)NC(=O)[C@H](CC(C)C)NC(=O)[C@H](CCCN)NC(=O)[C@H](CCCNC(=N)N)NC(=O)[C@H](C)NC(=O)[C@H](CO)NC(=O)[C@H](CC(C)C)NC(=O)[C@H](CCC(N)=O)NC(=O)[C@H](CC)NC(=O)[C@H](CC(C)C)NC(=O)[C@@H](NC(=O)[C@H](CCCN)NC(=O)[C@H](CCCNC(=N)N)NC(=O)[C@H](Cc1ccc(O)cc1)NC(=O)[C@H](CO)NC(=O)[C@H](CCC(N)=O)NC(=O)[C@@H](NC(=O)[C@H](Cc1ccccc1)NC(=O)[C@@H](NC(=O)[C@H](C)NC(=O)[C@H](CC(=O)O)NC(=O)[C@@H](C)NC(=O)[C@H](Cc1ccc(O)cc1)N(C)C(C)=O)[C@@H](C)CC)[C@@H](C)O)C(C)C)[C@@H](C)CC)C(=O)N[C@@H](CC(=O)O)C(=O)NCCCCNC(=N)N [Peptide P-20351, [Ac—N—Me-Tyr^1, D-Ala^2, Gln^8, Orn^12, Abu^15, Orn^21, Nle^27, Asp^28, Agm^29]hGHRH(1-29)] (Ac-[NMeY][dA]DAIFTQSYR[Orn]VL[Abu]QLSAR[Orn]LLQDI[Nle]D-Agmatine)	1.26
